Assay results as given in patent publication US9732367B2, “Cell lines” (MEDIMMUNE LIMITED, priority 2012, dated 2017).
Where “and” joins values, the source holds several entries; their conditions need not be identical. Identical values can stand only once.

Experiments:
pylRS/tRNA pair = biological target: T1, pylRS/tRNA pair (Methanosarcina mazei, UniProt Q8PWY1); assay: GFP assay: translational testing of pyrrolysine analogs as nnAAs; assay type: cell-based; settings: Formula V analogs, nnAA 2 mM, 2-3 days; for MFI: geometric mean
T1 construct: expressed in transfected cells; host or cells: HEK293 clone 3H7
Excerpt: An in vitro cell based assay was developed to assess the compatibility of the pylRS/tRNA pair and the pyrrolysine analogs of the present invention (nnAAs) by and the efficiency of nnAAs integration into a target protein. For this, HEK293 cells stably expressing pylRS (3H7) were transiently transfected with plasmids for the expression of tRNApyl and a reporter construct encoding GFPY40 (containing amber codon in place of tyrosine at amino acid residue number 40 (where 1 is the initiator methionine)) using standard transfection protocols. Transfected cells were incubated with nnAAs at 2 mM for 2-3 days GFP production was analyzed qualitatively by visual inspection under the microscope. The GFP fluorescence was quantified by flow cytometry using an Accuri flow cytometer and the geometric mean of the fluorescent cells determined.
This cell based assay was used to determine whether the different nnAAs were suitable substrates for the pylRS and allowed its translation into a target protein. Cells expressing the PylRS/tRNApyl pair and containing a vector encoding the GFPY40 reporter gene were incubated in the presence of the nnAAs. nnAAs that are readily utilized by the PylRS/tRNApyl pair support the translation of the nnAA into the amber site of GFP and allow read-through of the gene producing full length GFP (fluorescent protein). The fluorescence intensity of the cells depends on the efficiency of nnAA incorporation. Thus, nnAAs that are poorly utilized produce weakly fluorescent or non-fluorescing cells. […] Furthermore, the relative expression levels in each sample was compared to those generated by substrates known to be efficiently utilized by pylRS.

HEK293 c18 cells = assay: MTS viability assay with nnAA titration in cells transfected with pylRS and tRNA; settings: ALOC 5 mM to 0.08 mM, 5 days
Protocol: Finally, to determine whether amber suppression led to cytostatic effects, 1000 HEK293 c18 cells plates in a 96 well plate and transiently transfected with pCEP4-pylRS and pOriP-9×tRNA constructs. Cells were grown in DMEM-C medium containing a titration of nnAA (ALOC) starting with 5 mM to 0.08 mM. Cell viability was assayed at the time of the transfection, and after 5 days growth using an MTS colorimetric assays (FIG. 4D).

platform cell line [1] = assay: Platform cell line grown with or without dnnAA: cell numbers; assay type: cell-based
Protocol: (§1) To do this a platform cell line, selected for high activity of the amber suppression machinery was grown in the presence or absence of dnnAA for several passages and subsequently seeded into 96-well plates at ten cells per well and grown in the presence or absence of dnnAA (Formula VIIB.2). Each plate was incubated for several days and cells harvested, pooled and counted. […] This two fold increase in cell numbers may be due to the protective effects of the dnnAA. To examine the activity of the cells grown under these conditions, 0.5×10^6 cells pooled from each plate were seeded into a 6-well plate and transfected with a GFPY40 reporter construct in the absence of dnnAA and with lys-azide. After 24 hours the fluorescence intensity of the cells in each sample was analysed by flow cytometry. The data were gated to include single cells and plotted to display the intensity of each event (scatter plot, FIG. 16). The number of events falling within the top 10% of the GFP intensity spectrum were determined for each sample (Table 2). […] Cells from both groups were also transfected with a construct encoding wild type GFP. The same analyses were performed on this group.

[2] = system: CHO cells stably expressing pylRS and tRNApyl and an IgG directed against her2/neu containing an amber codon; assay: Growth and viability of pylRS/tRNApyl cell line treated with lys azide and dnnAA; assay type: cell-based; settings: 2 mM dnnAA with 0.5 mM lys-azide
Excerpt: To examine whether the dnnAAs of the invention could function to improve the viability of cells containing pylRS and tRNApyl we monitored the growth and viability of a cell line, stably expressing pylRS and tRNApyl. For this assay CHO cells stably expressing pylRS and tRNApyl and an IgG directed against her2/neu containing an amber codon in the heavy chain, shown to effectively incorporate nnAA into the expressed IgG thus producing an antibody containing a nnAA, were used for this experiment. Despite a high expression level of pylRS/tRNApyl pair, this cell line has very robust cell growth characteristics when grown in medium lacking nnAA. The presence of a highly expressed target containing an amber codon likely has a protective effect on the cells by supplying them with high levels of amber codons that absorb the amber suppression activity and protects the cells from the effects of background amber suppression at essential genes. However, upon addition of the nnAA (lys-azide) to the growth medium, and activation of the amber suppression machinery, a decrease in cell growth rate is observed. […] To determine whether a dnnAA can rescue this effect, cells cultured in serum free medium were grown to a cell density of 0.5×10^6 cells/mL and subsequently treated with 0.5 mM lys azide alone or in combination with 2 Mm dnnAA. Cell viability and cell numbers were monitored daily over seven days. Cells treated with lys azide alone reached a cell density just below 1×10^6 cells/mL on day 3 after nnAA addition and remained at this density for the remainder of the assay (seven days) (FIG. 15A) The lack of growth was not likely due to loss of viability as the culture retained high viability throughout the experiment (˜70% viable cells) (FIG. 15B) Cultures treated with 2 mM Compound of formula VIIB.4, or 2 mM Formula VIIB.1 in combination with 0.5 mM lys-azide supported continued growth of the culture that reached over 1.5×10^6 cells/mL and retained a cell viability of 90%.

[3] = system: background amber suppression; assay: Background amber suppression (GFPY40 reporter, pylRS/tRNApyl, dnnAA without nnAA); assay type: cell-based
Protocol: The competitive assay for dnnAA inhibition in the presence of a high affinity substrate identified dnnAAs that compete for binding with to the pylRS and thus are specific inhibitors of the pylRS/tRNA. However, the decoy nnAA is intended to reduce the levels of background amber suppression in the absence of nnAA. To determine if background amber suppression levels could be reduced, we incubated cells containing the GFPY40 reporter construct and the pylRS/tRNApyl pair in medium containing one of the dnnAAs. To do this, HEK293 cells stably expressing pylRS were transiently transfected with a tRNA expression construct and the GFPY40 reporter cassette. After 3 days of incubation, cells were assayed for expression of GFP by flow cytometry and geometric mean fluorescence intensity of the samples determined. We have previously observed that cells containing the full complement of the pylRS/tRNA amber suppression system show detectable expression of the GFP reporter construct that is above what is observed in cells lacking the amber suppression system. […] To identify dnnAAs capable of reducing background amber suppression levels the transfected cells were incubated with each of the dnnAAs at 0.5 mM, 1 mM and 2 mM and GFP levels measured by flow cytometry.
The decrease in background amber suppression dependent GFP expression was dose dependent and improved as the dnnAA concentration increased. […] This feature is an attractive characteristic for platform development as it enables the repression of background amber suppression but the system can be activated upon addition of a strong pylRS substrate such as lys-azide. […] Their efficacy was quantified by the reduction in GFP expression relative to a control sample (not exposed to dnnAA) and the data are summarized in Table 1.

pylRS = biological target: T2, pylRS (Methanosarcina mazei, UniProt Q8PWY1); assay: In vitro GFPY40 functional assay: dnnAA competition with lys azide in HEK293 cells stably expressing pylRS; assay type: cell-based; settings: lys azide with 0.5 mM, 1 mM and 2 mM dnnAA
T2 construct: expressed in transfected cells
Excerpt: Effective dnnAAs were identified by their ability to compete with a high affinity substrate for pylRS (lys-azide) in an in vitro assay, for their ability to reduce background amber suppression levels observed with a reporter protein, and for their ability to improve the viability and function of cells previously selected for high pylRS/tRNA activity.
To identify analogues that could effectively compete for pylRS binding with lys-azide, dnnAAs were first tested for function in an in vitro functional assay based on the ability of cells expressing WT pylRS and tRNApyl to introduce a nnAA at a target site in the reporter protein GFPY40. This reporter contains an amber codon in its open reading frame that, in the absence of amber suppression, generates a truncated protein that is not fluorescent. In the event of amber suppression, a full length GFP protein is generated that is detectable by fluorescence detection methods. In this assay, HEK293 cells stably expressing pylRS, were transiently transfected with a tRNA expression construct and the GFPY40 reporter cassette. Cells were then incubated with 0.5 mM lys azide in the presence or absence of different concentrations of dnnAA ranging from 0.5 mM to 2 mM. GFP fluorescence levels were then quantified by flow cytometry. For this assay the proportion of fluorescent cells in each condition was determined and plotted. As the dnnAAs are expected to compete with the nnAA (lys-azide) for pylRS/tRNA binding, an effective dnnAA should reduce or prevent the expression of full length GFP (as described above dnnAAs can be delivered by the tRNA to the amber site, but cannot propagate protein synthesis).
A similar in vitro assay was used to gauge the effectiveness of the dnnAAs of Formula VIIB listed in Table 1 where a description of the amino acids tested and a summary of the results are shown For this assay the geometric mean fluorescence intensity of each sample was determined by flow cytometry and plotted. For each dnnAA tested control cells transfected with wild type GFP were measured as a positive control. In addition cells transfected with the reporter GFPY40 and exposed to 0.5 mM lys azide or 2 mM lys azide were used to determine maximal GFP expression levels in the absence of an inhibitor. In each case robust GFP expression levels were observed. To test whether any of the dnnAA could reduce the efficacy of GFP expression, cells were incubated in the presence of 0.5 mM, 1 mM and 2 mM […]. […] Thus, dnnAAs of the present invention can compete with the lys-azide nnAA for binding to the pylRS and interfere with the physiological mechanism of nnAA introduction. Cells transfected with the pylRS/tRNA pair and the GFPY40 reporter construct but not exposed to either lys-azide or a dnnAA were used to determine levels of background amber suppression and used as a negative control. In each case low GFP expression levels were observed.

platform cell line [4] = assay: GFPY40 reporter activity of platform cells grown with or without dnnAA (flow cytometry); assay type: cell-based
Protocol: as §1

db/db mice = assay: Fed glucose blood levels in db/db mice; assay type: in vivo, mouse; settings: 0.25 mg/Kg daily subcutaneously, day 3
Protocol: To assess the potency of the PEGylated FGF21 constructs obese, db/db mice were treated daily with 0.25 mg/Kg FGF21 or 20K PEG-FGF21 and glucose levels measured in fed mice after three treatments using a handheld glucose monitor, (FIG. 7B).
The homozygous db/db mouse (B6.BKS(D)-Leprdb/j, Jackson labs) is a well characterized animal model for diabetes and becomes obese after 3-4 weeks of age. The animals also display elevated plasma insulin, blood sugar, and delayed wound healing. In this study, 7-8 week old, male db/db mice were fed Lab Diet 5053 Rodent Diet 20 ad libitum. Mice were acclimatized for seven days and subsequently administered PEGylated FGF21, unmodified FGF21 and vehicle (PBS) subcutaneously daily for […].
Each mouse was administered 0.25 mg/Kg of PEG-FGF21 or unmodified FGF21 daily for three days. Fed glucose blood levels were determined by tail clip bleeding one hour after compound administration on day 3, and glucose levels measured by a handheld glucose meter (Bayer).

[5] = Tracer (wild type GFP) transfected, sample 6

T1 sequence (Q8PWY1 whole entry): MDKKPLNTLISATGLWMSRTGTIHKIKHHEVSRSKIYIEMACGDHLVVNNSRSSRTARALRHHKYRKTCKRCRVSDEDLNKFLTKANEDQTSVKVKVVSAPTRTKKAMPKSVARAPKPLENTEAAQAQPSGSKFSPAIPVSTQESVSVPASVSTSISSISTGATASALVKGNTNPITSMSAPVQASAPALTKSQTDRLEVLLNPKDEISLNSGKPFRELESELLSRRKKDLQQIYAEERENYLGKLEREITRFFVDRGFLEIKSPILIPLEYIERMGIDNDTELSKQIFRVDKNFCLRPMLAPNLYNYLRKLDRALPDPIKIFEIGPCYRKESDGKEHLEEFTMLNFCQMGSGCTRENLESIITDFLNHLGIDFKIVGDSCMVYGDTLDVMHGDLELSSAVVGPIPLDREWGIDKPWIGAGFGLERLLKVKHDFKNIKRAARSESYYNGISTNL
T2 sequence (Q8PWY1 whole entry): as above

C=CCOC(=O)NCCCC[C@H](N)C(=O)O [Formula V.3, (2S)-2-amino-6-{[(prop-2-en-1-yloxy)carbonyl]amino}hexanoic acid]
Positive GFP (pylRS/tRNA pair): Yes | MFI (pylRS/tRNA pair): 2,250,000 | MFI (pylRS/tRNA pair; listed as V.3): 2250000 | effect on cell viability/growth (HEK293 c18 cells): cytotstatic effect

C=CCOC(=O)NCCCCC(=O)O [Formula VIIB.2, 5-{[(prop-2-en-1-yloxy)carbonyl]amino}pentanoic acid]
increase in cell numbers vs cultures without dnnAA (platform cell line [1]): two fold | cell numbers (platform cell line [1]; 96-well plates, ten cells per well, grown in dnnAA): 3.0 ×10^6 cells/mL and 3.7 ×10^6 cells/mL | prevention of cytostatic effects of amber suppression activation [2]: prevent the cytostatic effects | cell density ([2]; seven days): over 3 ×10^6 cells/mL | cell viability ([2]; seven days): over 90% | reduction in background amber suppression levels ([3]; dnnAA at 0.5 mM, 1 mM and 2 mM): reduction in the background amber suppression levels | % Reduction at 2 mM Decoy ([3]; reduction in GFP expression relative to control not exposed to dnnAA, 3 days): 57.7% | reduction of GFP expression relative to samples lacking dnnAA (geometric mean fluorescence intensity) (pylRS): relative reduction in GFP expression was much lower | Top 300 (GM) (platform cell line [4]; GFPY40 reporter with lys-azide, 24 hours, cells previously grown with decoy): 1142 and 1149 and 1135 | # events in top gate (platform cell line [4]; GFPY40 reporter, top 10% of GFP intensity, cells previously grown with decoy): 175 and 179 and 171 | # events in top gate (platform cell line [4]; [5]): 59 | Top 300 (GM) (platform cell line [4]; [5]): 529

B1: PEG-FGF21 (conjugate, UniProt Q9NSA1 29-209, looked up)
Fibroblast growth factor 21: HPIPDSSPLLQFGGQVRQRYLYTDDAQQTEAHLEIREDGTVGGAADQSPESLLQLKALKPGVIQILGVKTSRFLCQRPDGALYGSLHFDPEACSFRELLLEDGYNVYQSEAHGLPLHLPGNKSPHRDPAPRGPARFLPLPGLPPALPEPPGILAPQPPDVGSSDPLSMVGPSQGRSPSYAS
modifications: PEGylated
glucose level maintenance vs placebo (db/db mice): improved glucose level maintenance as compared to placebo controls | potency on fed glucose blood levels (db/db mice): same potency of wild type FGF21
